Assay results taken from patent US10793568B2, “Hormone receptor modulators for treating metabolic conditions and disorders” (ARDELYX, INC., priority 2016, dated 2020).

Biological target: ligand binding domain of human FXR (Homo sapiens (Human), UniProt Q96RI1)
Experiment: FXR ligand binding assay (LanthaScreen TR-FRET, SRC2-2 peptide recruitment)
Conditions: for Emax: extent of activation relative to GW4064, read-out: % Efficacy
Method: The affinity of FXR ligands for the ligand binding domain of FXR was determined using a commercially available human FXR ligand binding assay (LanthaScreen, Thermofisher Cat # PV4833). […] Binding of FXR ligands to the FXR ligand binding domain promotes binding of the fluorescein-labelled SRC2-2 peptide. This causes a FRET signal between the terbium-labelled anti-GST antibody and the fluorescein-labelled SRC peptide which are both bound to the FXR ligand binding domain.
Test compounds are dissolved in DMSO and a 3-fold serial dilution series is generated, then further diluted into assay buffer. The compounds are mixed with 5 nM GST-tagged FXR ligand binding domain, 5 nM Tb-labelled anti-GST antibody and 500 nM fluorescein-labelled SRC2-2 peptide in a pH7.4 buffer. The reaction is incubated at room temperature for 1 hour, then the FRET signal is measured as the ratio of the 520 nm/495 nm emission following excitation at 340 nm. The change in FRET signal is plotted against the test article concentration and fit to a 3-parameter logistical equation. The concentration required to produce 50% activation is expressed as pEC50 (−log EC50), and the extent of activation is expressed relative to GW4064 as % activation.

[1] = -log EC50, concentration required to produce 50% activation

Sequence of ligand binding domain of human FXR (Q96RI1 262-486): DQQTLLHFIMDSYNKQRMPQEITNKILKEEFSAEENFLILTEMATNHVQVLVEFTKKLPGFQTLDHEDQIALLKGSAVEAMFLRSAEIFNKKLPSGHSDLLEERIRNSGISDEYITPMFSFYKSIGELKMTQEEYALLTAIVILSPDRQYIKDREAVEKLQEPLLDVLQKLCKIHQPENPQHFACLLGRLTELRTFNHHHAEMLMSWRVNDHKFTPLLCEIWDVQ

| SMILES | EC50 [1] [pM] | Emax [%] | pEC50 [1] |
| --- | --- | --- | --- |
| Cc1cc(C(=O)NO)ccc1N1C[C@@H]2C[C@H]1C[C@H]2OCc1c(-c2c(Cl)cccc2Cl)noc1C1CC1 [Compound I-139, 4-[(1S,4S,5R)-5-{[5-cyclopropyl-3-(2,6-dichlorophenyl)-1,2-oxazol-4-yl]methoxy}-2-azabicyclo[2.2.1]heptan-2-yl]-N-hydroxy-3-methylbenzamide] | 631 | 132 | – |
| O=C(O)c1ccc(N2C(=O)[C@@H]3C[C@H]2C[C@H]3OCc2c(-c3c(Cl)cccc3Cl)noc2C2CC2)cn1 [Compound I-321, 5-[(1S,4R,5R)-5-{[5-cyclopropyl-3-(2,6-dichlorophenyl)-1,2-oxazol-4-yl]methoxy}-3-oxo-2-azabicyclo[2.2.1]heptan-2-yl]pyridine-2-carboxylic Acid] | – | 146 | 7.6 |
| O=C(O)c1ccc(N2C(=O)[C@@H]3C[C@H]2C[C@H]3OCc2c(-c3c(Cl)cccc3Cl)noc2C2CC2)nc1 [Compound I-322, 6-[(1S,4R,5R)-5-{[5-cyclopropyl-3-(2,6-dichlorophenyl)-1,2-oxazol-4-yl]methoxy}-3-oxo-2-azabicyclo[2.2.1]heptan-2-yl]pyridine-3-carboxylic acid] | – | 132 | 7.4 |
| O=C(O)c1ncc(N2C(=O)[C@@H]3C[C@H]2C[C@H]3OCc2c(-c3c(Cl)cccc3Cl)noc2C2CC2)cn1 [Compound I-323, 5-[(1S,4R,5R)-5-{[5-cyclopropyl-3-(2,6-dichlorophenyl)-1,2-oxazol-4-yl]methoxy}-3-oxo-2-azabicyclo[2.2.1]heptan-2-yl]pyrimidine-2-carboxylic Acid] | – | 103 | 6.4 |
| O=C(O)c1cnc(N2C(=O)[C@@H]3C[C@H]2C[C@H]3OCc2c(-c3c(Cl)cccc3Cl)noc2C2CC2)cn1 [Compound I-324, 5-[(1S,4R,5R)-5-{[5-cyclopropyl-3-(2,6-dichlorophenyl)-1,2-oxazol-4-yl]methoxy}-3-oxo-2-azabicyclo[2.2.1]heptan-2-yl]pyrazine-2-carboxylic Acid] | – | 140 | 7.1 |
| O=C(O)c1ccc(N2C(=O)[C@@H]3C[C@H]2C[C@H]3OCc2c(-c3c(Cl)cccc3Cl)noc2C2CC2)nn1 [Compound I-325, 6-[(1S,4R,5R)-5-{[5-cyclopropyl-3-(2,6-dichlorophenyl)-1,2-oxazol-4-yl]methoxy}-3-oxo-2-azabicyclo[2.2.1]heptan-2-yl]pyridazine-3-carboxylic Acid] | – | 104 | 6.6 |
| O=C(O)c1ncc(N2C(=O)[C@@H]3C[C@H]2C[C@H]3OCc2c(-c3c(Cl)cccc3Cl)noc2C2CC2)cc1F [Compound I-326, 5-[(1S,4R,5R)-5-{[5-cyclopropyl-3-(2,6-dichlorophenyl)-1,2-oxazol-4-yl]methoxy}-3-oxo-2-azabicyclo[2.2.1]heptan-2-yl]-3-fluoropyridine-2-carboxylic Acid] | – | 132 | 7.1 |
| O=C(O)CCc1ccc(N2C(=O)[C@@H]3C[C@H]2C[C@H]3OCc2c(-c3c(Cl)cccc3Cl)noc2C2CC2)cn1 [Compound I-327, 3-{5-[(1S,4R,5R)-5-{[5-cyclopropyl-3-(2,6-dichlorophenyl)-1,2-oxazol-4-yl]methoxy}-3-oxo-2-azabicyclo[2.2.1]heptan-2-yl]pyridin-2-yl}propanoic Acid] | – | – | >5.5 |
| O=C(O)CCc1ncc(N2C(=O)[C@@H]3C[C@H]2C[C@H]3OCc2c(-c3c(Cl)cccc3Cl)noc2C2CC2)cc1F [Compound I-328, 3-{5-[(1S,4R,5R)-5-{[5-cyclopropyl-3-(2,6-dichlorophenyl)-1,2-oxazol-4-yl]methoxy}-3-oxo-2-azabicyclo[2.2.1]heptan-2-yl]-3-fluoropyridin-2-yl}propanoic Acid] | – | 87 | 6.9 |
| CO[C@@H]1CCC[C@H]1S(=O)(=O)NC(=O)c1ncc(N2C(=O)[C@@H]3C[C@H]2C[C@H]3OCc2c(-c3c(Cl)cccc3Cl)noc2C2CC2)cc1F [Compound I-348, 5-[(1S,4R,5R)-5-{[5-cyclopropyl-3-(2,6-dichlorophenyl)-1,2-oxazol-4-yl]methoxy}-3-oxo-2-azabicyclo[2.2.1]heptan-2-yl]-3-fluoro-N-{[(1R,2R)-2-methoxycyclopentyl]sulfonyl}pyridine-2-carboxamide] | – | 171 | 8 |
| O=C(NS(=O)(=O)[C@@H]1CCC[C@H]1O)c1ncc(N2C(=O)[C@@H]3C[C@H]2C[C@H]3OCc2c(-c3c(Cl)cccc3Cl)noc2C2CC2)cc1F [Compound I-349, 5-[(1S,4R,5R)-5-{[5-cyclopropyl-3-(2,6-dichlorophenyl)-1,2-oxazol-4-yl]methoxy}-3-oxo-2-azabicyclo[2.2.1]heptan-2-yl]-3-fluoro-N-{[(1R,2R)-2-hydroxycyclopentyl]sulfonyl}pyridine-2-carboxamide] | – | 171 | 8.2 |
| O=C(NS(=O)(=O)[C@@H]1CCC[C@H]1O)c1ccc(N2C(=O)[C@@H]3C[C@H]2C[C@H]3OCc2c(-c3c(Cl)cccc3Cl)noc2C2CC2)cn1 [Compound I-350, 5-[(1S,4R,5R)-5-{[5-cyclopropyl-3-(2,6-dichlorophenyl)-1,2-oxazol-4-yl]methoxy}-3-oxo-2-azabicyclo[2.2.1]heptan-2-yl]-N-{[(1R,2R)-2-hydroxycyclopentyl]sulfonyl}pyridine-2-carboxamide] | – | 170 | 8.1 |
| O=C(NS(=O)(=O)C1CC1)c1ccc(N2C(=O)[C@@H]3C[C@H]2C[C@H]3OCc2c(-c3c(Cl)cccc3Cl)noc2C2CC2)cn1 [Compound I-351, 5-((1S,4R,5R)-5-((5-cyclopropyl-3-(2,6-dichlorophenyl)isoxazol-4-yl)methoxy)-3-oxo-2-azabicyclo[2.2.1]heptan-2-yl)-N-(cyclopropylsulfonyl)picolinamide] | – | 132 | 7.6 |
| O=C(NS(=O)(=O)C1CCOCC1)c1ccc(N2C(=O)[C@@H]3C[C@H]2C[C@H]3OCc2c(-c3c(Cl)cccc3Cl)noc2C2CC2)cn1 [Compound I-352, 5-((1S,4R,5R)-5-((5-cyclopropyl-3-(2,6-dichlorophenyl)isoxazol-4-yl)methoxy)-3-oxo-2-azabicyclo[2.2.1]heptan-2-yl)-N-((tetrahydro-2H-pyran-4-yl)sulfonyl)picolinamide] | – | 154 | 8 |
| O=C(NS(=O)(=O)C1CCCC1)c1ccc(N2C(=O)[C@@H]3C[C@H]2C[C@H]3OCc2c(-c3c(Cl)cccc3Cl)noc2C2CC2)cn1 [Compound I-353, N-(cyclopentylsulfonyl)-5-((1S,4R,5R)-5-((5-cyclopropyl-3-(2,6-dichlorophenyl)isoxazol-4-yl)methoxy)-3-oxo-2-azabicyclo[2.2.1]heptan-2-yl)picolinamide] | – | 159 | 8.3 |
| CC1(C)CC(S(=O)(=O)NC(=O)c2ccc(N3C(=O)[C@@H]4C[C@H]3C[C@H]4OCc3c(-c4c(Cl)cccc4Cl)noc3C3CC3)cn2)CCO1 (stereo partly drawn) [Compound I-354, 5-((1S,4R,5R)-5-((5-cyclopropyl-3-(2,6-dichlorophenyl)isoxazol-4-yl)methoxy)-3-oxo-2-azabicyclo[2.2.1]heptan-2-yl)-N-((2,2-dimethyltetrahydro-2H-pyran-4-yl)sulfonyl)picolinamide] | – | 138 | 8.1 |
